Measurements published in ChEMBL document CHEMBL4342418, “1,2,3-Triazole-containing hybrids as potential anticancer agents: Current developments, action mechanisms and structure-activity relationships” (Eur J Med Chem, 2019).
≈ marks a conversion by molar mass, not a printed value. Blank lines part the entries; values can stand above or below the compound they belong to.

Key:
Caco-2 = test: Antiproliferative activity against human Caco2 cells assessed as reduction in cell viability after 48 hrs by MTT assay; format: functional, cell-based; conditions: Caco-2, 48 h
T47D [1] = test: Antiproliferative activity against human T47D cells assessed as reduction in cell viability after 48 hrs by MTT assay; format: functional, cell-based
HCT-116 [2] = test: Antiproliferative activity against human HCT116 cells assessed as reduction in cell viability after 48 hrs by MTT assay; format: functional, cell-based; conditions: HCT-116, 48 h
MCF7 [3] = test: Antiproliferative activity against human MCF7 cells assessed as reduction in cell viability after 48 hrs by MTT assay; format: functional, cell-based; conditions: MCF7, 48 h
MCF7 [4] = test: cells; format: functional, cell-based; conditions: Homo sapiens
Description: Antiproliferative activity against human MCF7 cells by MTT assay

HCT-116 [5] = test: Antiproliferative activity against human HCT116 cells by MTT assay; format: functional, cell-based
HepG2 [6] = test: Antiproliferative activity against human HepG2 cells by MTT assay; format: functional, cell-based
MDA-MB-231 [7] = test: Antiproliferative activity against human MDA-MB-231 cells assessed as reduction in cell viability after 48 hrs by MTT assay; format: functional, cell-based; conditions: MDA-MB-231, 48 h
HeLa [8] = test: Antiproliferative activity against human HeLa cells assessed as reduction in cell viability after 48 hrs by MTT assay; format: functional, cell-based
SK-N-SH = test: Antiproliferative activity against human SK-N-SH cells by MTT assay; format: functional, cell-based
MGC-803 = test: Antiproliferative activity against human MGC803 cells by MTT assay; format: functional, cell-based
DU-145 [9] = test: Antiproliferative activity against human DU145 cells by SRB assay; format: functional, cell-based
HeLa [10] = test: Antiproliferative activity against human HeLa cells by SRB assay; format: functional, cell-based
MDA-MB-231 [11] = test: Antiproliferative activity against human MDA-MB-231 cells by SRB assay; format: functional
HepG2 [12] = test: Antiproliferative activity against human HepG2 cells by SRB assay; format: functional, cell-based
KG-1a = test: Antiproliferative activity against human KG1a cells assessed as reduction in cell viability after 72 hrs by MTT assay; format: functional, cell-based
SK-BR-3 = test: Antiproliferative activity against human SKBR3 cells assessed as reduction in cell viability after 72 hrs by MTT assay; format: functional, cell-based; conditions: SK-BR-3, 72 h
SUM-159-PT = test: Antiproliferative activity against human SUM159 cells assessed as reduction in cell viability after 72 hrs by MTT assay; format: functional, cell-based
DU-145 [13] = test: Antiproliferative activity against human DU145 cells assessed as reduction in cell viability after 48 hrs by MTT assay; format: functional, cell-based; conditions: DU-145, 48 h
A549 [14] = test: Antiproliferative activity against human A549 cells assessed as reduction in cell viability after 48 hrs by MTT assay; format: functional, cell-based; conditions: A549, 48 h
HEK293 = test: Cytotoxicity against HEK293 cells assessed as reduction in cell viability after 48 hrs by MTT assay; format: cell-based; conditions: Homo sapiens, HEK293, 48 h
T47D [15] = test: Antiproliferative activity against human T47D cells assessed as reduction in cell viability after 72 hrs by MTT assay; format: functional, cell-based
MCF7 [16] = test: Antiproliferative activity against human MCF7 cells assessed as reduction in cell viability after 72 hrs by MTT assay; format: functional, cell-based; conditions: MCF7, 72 h
[17] = Antiproliferative activity against human SMCC7721 cells assessed as reduction in cell viability after 48 hrs by MTT assay; format: functional, cell-based
SW480 = test: Antiproliferative activity against human SW480 cells assessed as reduction in cell viability after 48 hrs by MTT assay; format: functional, cell-based; conditions: SW480, 48 h
A549 [18] = test: Antiproliferative activity against human A549 cells by SRB assay; format: functional, cell-based
C2C12 = test: Cytotoxicity against mouse C2C12 cells assessed as reduction in cell viability after 48 hrs by MTT assay; format: cell-based; conditions: C2C12, 48 h
HT-29 [19] = test: Antiproliferative activity against human HT-29 cells assessed as reduction in cell viability after 48 hrs by MTT assay; format: functional, cell-based; conditions: HT-29, 48 h
HT-29 [20] = test: Antiproliferative activity against human HT-29 cells assessed as reduction in cell viability after 72 hrs by MTT assay; format: functional, cell-based; conditions: HT-29, 72 h
MCF-10A = test: Cytotoxicity against human MCF10A cells by MTT assay; format: cell-based
MDA-MB-231 [21] = test: Antiproliferative activity against human MDA-MB-231 cells by MTT assay; format: functional, cell-based

IC50 (Caco-2): 33 to 154 µM
IC50 (T47D [1]): 33 to 154 µM
IC50 (HCT-116 [2]): 33 to 154 µM
IC50 (MCF7 [3]): 33 to 154 µM
Compound: O=C(Cn1cc(C(O)(c2ccccc2)c2ccccc2)nn1)N1CCN(c2nc3ccccc3s2)CC1

IC50 (MCF7 [4]): 3.46 µg/mL
IC50 (HCT-116 [5]): > 100 µg/mL
IC50 (HepG2 [6]): > 100 µg/mL
Compound: CNC(=S)N1N=C(c2nnn(-c3ccc(-n4nnc(C5=NN(C(=S)NC)C(c6ccccc6)C5)c4C)cc3)c2C)CC1c1ccccc1 (stereo not given)

IC50 (Caco-2): 33 to 48 µM
IC50 (T47D [1]): 33 to 48 µM
IC50 (HCT-116 [2]): 33 to 48 µM
IC50 (MCF7 [3]): 33 to 48 µM
Compound: O=C(Cn1cc(CCCO)nn1)N1CCN(c2nc3ccccc3s2)CC1

IC50 (MDA-MB-231 [7]): 4.8 to 9.21 µM
IC50 (HeLa [8]): 4.8 to 9.21 µM
IC50 (MCF7 [3]): 4.8 to 9.21 µM
Compound: N#CC1=C(N)Oc2ccccc2C12C(=O)N(Cc1cn(CCCCBr)nn1)c1ccccc12 (stereo not given)

IC50 (SK-N-SH): 1.52 to 10.4 µM
IC50 (MGC-803): 1.52 to 10.4 µM
IC50 (HepG2 [6]): 1.52 to 10.4 µM
Compound: COc1cc(/C=C/C(=O)c2ccc(OCCCn3cc(CSc4nncs4)nn3)cc2)cc(OC)c1OC

Compound: Cc1ccc(-c2nn(Cc3cn(Cc4ccccc4)nn3)c(=O)o2)cc1
GI50 (DU-145 [9]): 0.82 to 2.39 µM
GI50 (HeLa [10]): 0.82 to 2.39 µM
GI50 (MDA-MB-231 [11]): 0.82 to 2.39 µM
GI50 (HepG2 [12]): 0.82 to 2.39 µM

IC50 (SK-BR-3): 2.06 to 7.47 µM
Compound: Fc1cccc(COc2ccc(Nc3ncnc4ccc(-n5cc(CNC6CCN(Cc7cccnc7)CC6)nn5)cc34)cc2Cl)c1
IC50 (KG-1a): 2.06 to 7.47 µM
IC50 (SUM-159-PT): 2.06 to 7.47 µM

IC50 (DU-145 [13]): 0.51 to 3.98 µM
IC50 (A549 [14]): 0.51 to 3.98 µM
IC50 (MDA-MB-231 [7]): 0.51 to 3.98 µM
IC50 (HCT-116 [2]): 0.51 to 3.98 µM
Compound: O=C(c1cn(Cc2ccc(-c3ccc(Cl)cc3)cc2)nn1)c1c(-c2ccccc2)nc2ccccn12
IC50 (HEK293): 91.2 µM

GI50 (T47D [15]): 27.7 to 85.7 µg/mL (≈ 71.1 to 220 µM)
GI50 (MCF7 [16]): 27.7 to 85.7 µg/mL (≈ 71.1 to 220 µM)
Compound: COc1ccc(Cn2cc(CNC(=O)c3cc(-c4ccccc4)on3)nn2)cc1

IC50 (A549 [14]): 0.49 to 6.7 µM
IC50 (SW480): 0.49 to 6.7 µM
IC50 (MCF7 [3]): 0.49 to 6.7 µM
Compound: COc1cc([C@@H]2c3cc4c(cc3[C@H](n3cc(CO[C@@H]5O[C@H](COC(C)(C)C)[C@@H](OC(C)(C)C)[C@H](OC(C)(C)C)[C@H]5OC(C)(C)C)nn3)[C@H]3COC(=O)[C@H]23)OCO4)cc(OC)c1OC
IC50 [17]: 0.49 to 6.7 µM

IC50 (SK-N-SH): 1.52 to 10.4 µM
IC50 (MGC-803): 1.52 to 10.4 µM
IC50 (HepG2 [6]): 1.52 to 10.4 µM
Compound: COc1cc(/C=C/C(=O)c2ccc(OCCCn3cc(CSC4=NCCS4)nn3)cc2)cc(OC)c1OC

IC50 (Caco-2): 33 to 154 µM
IC50 (T47D [1]): 33 to 154 µM
IC50 (HCT-116 [2]): 33 to 154 µM
IC50 (MCF7 [3]): 33 to 154 µM
Compound: O=C(Cn1cc(CO)nn1)N1CCN(c2nc3ccccc3s2)CC1

GI50 (DU-145 [9]): 1.3 to 8.2 µM
GI50 (A549 [18]): 1.3 to 8.2 µM
GI50 (HeLa [10]): 1.3 to 8.2 µM
GI50 (HepG2 [12]): 1.3 to 8.2 µM
Compound: COc1ccc(/C=C/C(=O)c2cc(OC)c(OC)c(OC)c2)cc1OCc1cn(Cc2ccc(F)cc2)nn1

IC50 (HCT-116 [2]): 7.1 to 13.4 µM
IC50 (MCF7 [3]): 7.1 to 13.4 µM
Compound: O=C(Nc1cccc(-n2cc(Oc3ccc(-c4cc(-c5ccc(Oc6cn(-c7cccc(NC(=O)[C@@H]8CCCN8)c7)nn6)cc5)cc(-c5ccc(Oc6cn(-c7cccc(NC(=O)[C@@H]8CCCN8)c7)nn6)cc5)c4)cc3)nn2)c1)[C@@H]1CCCN1
IC50 (C2C12): > 40 µM

IC50 (Caco-2): 33 to 154 µM
IC50 (T47D [1]): 33 to 154 µM
IC50 (HCT-116 [2]): 33 to 154 µM
IC50 (MCF7 [3]): 33 to 154 µM
Compound: CCOC(=O)c1cn(CC(=O)N2CCN(c3nc4ccccc4s3)CC2)nn1

IC50 (DU-145 [13]): 1.31 to 1.62 µM
IC50 (A549 [14]): 1.31 to 1.62 µM
IC50 (HT-29 [19]): 1.31 to 1.62 µM
Compound: COc1ccc(S(=O)(=O)Nc2cccnc2Nc2ccc(O)cc2)cc1 [ABT-751]
IC50 (HEK293): 1.31 to 1.62 µM

IC50 (SK-BR-3): 9.76 to 20.1 µM
Compound: CS(=O)(=O)CCNCc1ccc(-c2ccc3ncnc(Nc4ccc(OCc5cccc(F)c5)c(Cl)c4)c3c2)o1 [LAPATINIB]
IC50 (KG-1a): 9.76 to 20.1 µM
IC50 (SUM-159-PT): 9.76 to 20.1 µM

Compound: COC(=O)Nc1nc2cc(C(=O)c3cccs3)ccc2[nH]1 [NOCODAZOLE]
GI50 (DU-145 [9]): 0.011 to 0.034 µM
IC50 (DU-145 [13]): 1.38 to 3.1 µM
IC50 (A549 [14]): 1.38 to 3.1 µM
IC50 (HT-29 [19]): 2.2 to 3.1 µM
GI50 (HeLa [10]): 0.011 to 0.034 µM
IC50 (HEK293): 2.2 to 3.1 µM
IC50 (MDA-MB-231 [7]): 1.38 to 1.65 µM
IC50 (HCT-116 [2]): 1.38 to 1.65 µM
GI50 (MDA-MB-231 [11]): 0.011 to 0.034 µM
GI50 (HepG2 [12]): 0.011 to 0.034 µM

IC50 (HT-29 [20]): 5.29 µM
IC50 (MCF7 [16]): 43.3 µM
Compound: CNC(=O)c1cc(Oc2ccc(NC(=O)Nc3ccc(Cl)c(C(F)(F)F)c3)cc2)ccn1 [SORAFENIB]

Compound: CN(C)CCOc1ccc(/C(=C(/CCCl)c2ccccc2)c2ccccc2)cc1 [TOREMIFENE]
IC50 (MCF7 [4]): 7 µM
IC50 (MCF-10A): > 100 µM
IC50 (MDA-MB-231 [21]): 13 µM
